Patent US7744909B2, “Dispersions for the formulation of slightly or poorly soluble agents” (Abbott GmbH & Co., KG, priority 2000, dated 2010)
Converted amounts (≈) assume the structure as drawn.

How the values were obtained:
[1] = Additive solubility in oil and water phase versus quantity dissolved in the emulsion; type: physicochemical
Method: Preferably, the quantity of active ingredient dissolved is greater than the additive quantity by a factor of 2, more preferably 5, still more preferably 10 or even greater. The “additive quantity” is determined by dissolving the maximum possible quantity of active ingredient in the separate oily and aqueous phases (dissolving conditions being otherwise identical) corresponding to the constituents in the dispersion (saturation concentration), no further additional organic solvents being used. The dispersion according to the invention contains, in addition to the additive quantity, a superadditive quantity of dissolved active ingredient.
40 g emulsion from Example 1 consist 20% of oil (8 g) and ca. 80% of water (32 g). Thus on the basis of these solubilities, 8×0.0001 mg/ml plus 32×0.01 mg/ml, i.e. in total 0.3208 mg Amphotericin can be dissolved in 40 g emulsion components oil and water (i.e. approx. 0.008 mg/ml emulsion). In the present emulsion according to the invention 0.2 mg/ml emulsion could be incorporated (Example 1) without microscopic crystals of undissolved drug being detectable (Example 12).
Dissolved active ingredient is rapidly available. […] The solubility in water and oil phase amounts to, for example, 0.008 mg/ml in the case of Amphotericin B, the emulsion according to the invention dissolves without detectable crystals e.g. 0.2 mg/ml (Example 1). If 5 mg/ml dispersion is incorporated, the solubility is exceeded (supersaturated system).
(§1) The dispersions contains the active ingredient dissolved in an amount, which is greater than that amount which is the result of the mathematical addition of its maximal solubility in each of the water phase and the oil phase of the emulsion, which “addition amount” is determined under standard conditions (20° C., standard pressure) by dissolving the maximal amount of active ingredient in the separate oil and aqueous phases (maintaining the other dissolution conditions identical) corresponding to the proportions in the dispersion (saturation concentrations).

[2] = oral administration; cited from earlier work
[3] = Solubility of Amphotericin B in water; type: physicochemical; details: for solubility: water
Method: Thus the solubility of Amphotericin B in water is less than 0.001% (<0.01 mg/ml) at pH 6-7, i.e. the pH value of the emulsion. It is true that the solubility of Amphotericin is higher with pH 2 and pH 11 (0.1 mg/ml), however these solutions cannot be administered intravenously.
as §1

[4] = Solubility of Amphotericin in standard oils (soya oil, Miglyol 812); type: physicochemical; details: oil or lipid
Method: The solubility of Amphotericin in soya oil (Long-chain Triglycerides—LCT) and in Miglyol 812 (Medium-chain Triglycerides—MCT), the standard oils for most commercially available emulsions for parenteral infusion is less than 0.0001 mg/ml.
as §1

With `C[C@@H]1[C@H](O)[C@@H](C)/C=C/C=C/C=C/C=C/C=C/C=C/C=C/[C@H](O[C@@H]2O[C@H](C)[C@@H](O)[C@H](N)[C@@H]2O)C[C@@H]2O[C@](O)(C[C@@H](O)C[C@@H](O)[C@H](O)CC[C@@H](O)C[C@@H](O)CC(=O)O[C@H]1C)C[C@H](O)[C@H]2C(=O)O` [Amphotericin B] the “quantity that can be dissolved in 40 g emulsion components oil and water” value ([1]; 8 g oil plus 32 g water, calculated from the separate solubilities) was 0.3208 mg, the solubility ([1]; 20 °C, oil or lipid, per ml emulsion, calculated from the separate solubilities) was ~8 µg/mL (≈ 8.66 µM) and the “quantity dissolved in the emulsion without detectable crystals” value ([1]; emulsion according to the invention (Example 1), Lipofundin N 20%) was 0.2 mg/mL. For the same molecule, the “solubility in water and oil phase (additive quantity)” value ([1]; per ml emulsion, calculated from the separate solubilities) was 8 µg/mL (≈ 8.66 µM), the bioavailability [2] was “almost zero” and the solubility in water ([3]; pH 6-7, the pH value of the emulsion) was “less than 0.001%”. The solubility ([3]; pH 2, aqueous buffer, read-out: solubility) was 100 µg/mL (≈ 108 µM), the solubility ([3]; pH 11, aqueous buffer, read-out: solubility) was 100 µg/mL (≈ 108 µM) and the solubility ([3]; pH 6-7, the pH value of the emulsion, read-out: solubility in water) was < 10 µg/mL. The solubility ([4]; Miglyol 812 (medium-chain triglycerides, MCT), read-out: solubility in Miglyol 812 (Medium-chain Triglycerides, MCT)) was < 0.1 µg/mL and the solubility ([4]; soya oil (long-chain triglycerides, LCT), read-out: solubility in soya oil (Long-chain Triglycerides, LCT)) was < 0.1 µg/mL.
